From publication PMC9309159, “Identification of heptapeptides targeting a lethal bacterial strain in septic mice through an integrative approach” (Signal Transduction and Targeted Therapy, 2022)
“Also recorded” adds a separate entry of the source. Ends that are not written are not given here. * marks the point of attachment. Biotin = O=C1N[C@H]2[C@H](CS[C@H]2CCCCC(=O)*)N1

Experiments:
DEGP protein = experiment: SPRi assay of peptide binding to DEGP protein; parameters: species or system E. coli MSI001; settings: control peptide immobilized on chip, value printed in picture of Fig. 8e
Protocol: (§1) Protein profiles were determined by cPCoA distance among samples and characterized by close intragroup distances among samples. b Hierarchical clustering analysis of proteins from the HEE, VTK and input groups. […] Label-free mass spectrometry was used to quantitate proteins from the HEE, VTK and input groups. Red represents high expression, while blue represents low expression. c Volcano plot of proteins from the VTK group and HEE group. […] DEGP or DEGQ protein at different concentrations (5 nmol/L, 10 nmol/L, 20 nmol/L) in solution flowed on an SPRi chip. Binding data were collected and analyzed by commercial SPRi analysis software (Plexera SPR Data Analysis Model, Plexera, USA).
(§2) To measure the binding affinity of peptides with targeted proteins, a PlexArray HT A100 (Plexera, USA) Surface Plasmon Resonance imaging (SPRi) system was used to monitor the whole procedure in real time. Briefly, a chip with a well-prepared peptide microarray was assembled with a plastic flow cell for sample loading. The operation details for the PlexArray HT were as described previously.[65] The purified protein samples were prepared at determined concentrations in PBS running buffer, while glycine-HCl buffer (10 mmol/L, pH 2.0) was used for regeneration. Binding data were collected and analyzed by SPR Data Analysis Module software (Plexera, USA). […]

DEGQ protein = experiment: SPRi assay of peptide binding to DEGQ protein; parameters: species or system E. coli MSI001; settings: control peptide immobilized on chip, value printed in picture of Fig. 8e
Protocol: as §1, §2

bacterial strain MSI001 = experiment: In vitro antibacterial assay (colony counting); format: cell-based, Escherichia coli; settings: 1 × 10^3 CFU, peptide 0.25, 0.5, 1 μmol/L, 37 °C, 1-8 h, colony count, n = 3
Protocol: Fig. 6 Antimicrobial activity of the C7C-LL37 fusion peptides in vitro. a Primary structures and physical properties of the C7C and LL37 fusion peptides, including LL37, VTK-LL37, LL37-VTK, KYY-LL37 and LL37-KYY, ISS-LL37, INS-LL37. Net charge, PI and GRAVY values were acquired as described above. b Inhibitory effect of C7C-LL37 fusion peptides on bacterial growth. A C7C-LL37 fusion peptide or LL37 alone was added to the cultured bacterial strain MSI001 (1 × 10^3 CFU) at final concentrations of 0.25 μmol/L, 0.5 μmol/L and 1 μmol/L. Sterile DPBS was used as control. After incubation with the C7C-LL37 or LL37 peptides at 37 °C for different times (1-8 h), bacterial colonies were counted. n = 3. *P < 0.05, VTK-LL37 group compared to LL37 group; ^#P < 0.05, LL37-VTK group compared to LL37 group. c, d Inhibitory effect of VTK-LL37 on biofilm formation. The VTK-LL37 or LL37 peptide was added to the bacterial culture at a final concentration of 0-4 μmol/L and incubated at 37 °C for 3 days. Bacterial culture medium and the peptides were refreshed every day. The biofilm was stained with 1% crystal violet, and the precipitates were dissolved in 95% ethanol, followed by detection of absorbance at 570 nm (A570) (c). Moreover, the biofilm was observed under a microscope (d). n = 5. *P < 0.05, VTK-LL37 group compared to LL37 group […]

[1] = target: T1, DEGP protein, purified (SPRi analyte) (E. coli (strain MSI001), UniProt P0C0V0 27-474); experiment: SPR; settings: both partners purified
T1 sequence (looked up): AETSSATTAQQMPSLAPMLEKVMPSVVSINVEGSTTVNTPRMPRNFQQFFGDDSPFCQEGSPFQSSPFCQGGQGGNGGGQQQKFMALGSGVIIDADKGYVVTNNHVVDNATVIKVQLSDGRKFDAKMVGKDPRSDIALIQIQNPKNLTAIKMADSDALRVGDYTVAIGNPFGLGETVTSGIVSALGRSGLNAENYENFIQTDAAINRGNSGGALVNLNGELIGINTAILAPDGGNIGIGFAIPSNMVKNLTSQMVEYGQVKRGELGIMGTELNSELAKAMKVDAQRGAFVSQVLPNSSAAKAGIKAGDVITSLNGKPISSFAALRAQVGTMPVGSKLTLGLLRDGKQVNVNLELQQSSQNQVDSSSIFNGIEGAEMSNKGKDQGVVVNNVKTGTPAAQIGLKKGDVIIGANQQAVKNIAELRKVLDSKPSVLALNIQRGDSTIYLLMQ

[2] = target: T2, DEGQ protein, purified (SPRi analyte) (E. coli (strain MSI001), UniProt P39099 28-455); experiment: SPR; settings: both partners purified
T2 sequence (looked up): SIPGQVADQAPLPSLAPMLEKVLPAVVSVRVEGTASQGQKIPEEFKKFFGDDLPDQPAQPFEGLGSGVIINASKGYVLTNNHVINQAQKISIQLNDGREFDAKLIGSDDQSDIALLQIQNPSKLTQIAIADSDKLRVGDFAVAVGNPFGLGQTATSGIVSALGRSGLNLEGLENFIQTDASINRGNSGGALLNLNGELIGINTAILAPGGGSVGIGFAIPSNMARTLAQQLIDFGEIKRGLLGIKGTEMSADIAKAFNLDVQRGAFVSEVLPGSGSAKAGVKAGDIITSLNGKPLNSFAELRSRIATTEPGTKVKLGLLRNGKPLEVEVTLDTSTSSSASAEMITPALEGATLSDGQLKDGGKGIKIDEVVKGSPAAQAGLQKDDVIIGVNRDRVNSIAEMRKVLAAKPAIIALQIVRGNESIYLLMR

For “Biotin-CHEEWLPAC (cysteine pairing not given here) [control HEE heptapeptide]”, the Kd (DEGP protein) was 5250 nM and the Kd (DEGQ protein) was 1000 nM.

In the case of “LLGDFFRKSKEKIGKEFKRIVQRIKDFLRNLVPRTESVPGVGCVTKLGSLC [LL37-VTK]”, the “inhibitory effect on bacterial growth of MSI001” value (bacterial strain MSI001) is reported as “inhibited MSI001 bacterial growth but also showed stronger antibiotic activity than LL37 alone in the early stage (1-3 h); also recorded: stronger bacteriostatic activity than other LL37 fusion peptides”.

B1: VTK heptapeptide VTKLGSL, synthesized (immobilised on the SPRi chip) (peptide)
peptide: VTKLGSL
notes: also called VTK peptide; source: synthetic peptide
With B1 the Kd [1] was 15.8 nM and the Kd [2] was 1.73 nM.
